# Source: US11311520B2, “Substituted dihydroimidazopyridinediones as MKNK1 and MKNK2 inhibitors” (Bayer Pharma Aktiengesellschaft, priority 2017, dated 2022)
# Target: human full-length MKNK1 (Homo sapiens (Human), UniProt Q9BUB5, T344D)
# Assay: MKNK1 kinase high ATP assay (TR-FRET)
# Type: biochemical
# Conditions: 2 mM ATP, 15 min preincubation with enzyme, GST-MKNK1 (T344D)
# Outline: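 GST-tagged full-length human MKNK1 (1-424, T344D, baculovirus-expressed) preincubated 15 min at 22 °C with compound, then reacted 30 min at 22 °C with 2 mM ATP and 0.06 μM biotinylated peptide (final) in HEPES pH 7.5. Phospho-substrate by TR-FRET (665/622 nm ratio), normalised to no-inhibitor and no-enzyme controls.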
# Sequence of human full-length MKNK1 (Q9BUB5 other isoform, or with tags, fused parts or gaps T344D): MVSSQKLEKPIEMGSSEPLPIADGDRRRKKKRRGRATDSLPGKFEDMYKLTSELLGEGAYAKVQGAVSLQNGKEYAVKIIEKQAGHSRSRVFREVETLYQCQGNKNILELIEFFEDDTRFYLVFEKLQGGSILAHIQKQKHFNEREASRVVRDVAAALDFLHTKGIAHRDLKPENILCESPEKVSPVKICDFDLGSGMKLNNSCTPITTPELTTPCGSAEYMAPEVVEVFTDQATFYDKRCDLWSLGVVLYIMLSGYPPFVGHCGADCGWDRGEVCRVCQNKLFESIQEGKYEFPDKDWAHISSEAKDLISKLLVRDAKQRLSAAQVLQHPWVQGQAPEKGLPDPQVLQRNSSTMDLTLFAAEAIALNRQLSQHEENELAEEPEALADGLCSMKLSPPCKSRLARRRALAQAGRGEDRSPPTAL
row,SMILES,IC50 [nM]
1,"Cc1cc(Nc2ncnc3ccc(F)cc23)c(=O)n2c1C(=O)N[C@]21CC[C@@](O)(C(F)(F)F)CC1 [Example 189, (cis)-6′-[(6-fluoroquinazolin-4-yl)amino]-4-hydroxy-8′-methyl-4-(trifluoromethyl)-2′H-spiro[cyclohexane-1,3′-imidazo[1,5-a]pyridine]-1′,5′-dione]",274
2,"Cc1cc(Nc2ncnc(N)n2)c(=O)n2c1C(=O)N[C@]21CC[C@@](O)(C(F)(F)F)CC1 [Example 190, (cis)-6′-[(4-amino-1,3,5-triazin-2-yl)amino]-4-hydroxy-8′-methyl-4-(trifluoromethyl)-2′H-spiro[cyclohexane-1,3′-imidazo[1,5-a]pyridine]-1′,5′-dione]",31.4
3,"Cc1cc(Nc2ncnc3cccc(C)c23)c(=O)n2c1C(=O)N[C@]21CC[C@@](O)(C(F)(F)C(F)(F)F)CC1 [Example 191, (cis)-4-hydroxy-8′-methyl-6′-[(5-methylquinazolin-4-yl)amino]-4-(pentafluoroethyl)-2′H-spiro[cyclohexane-1,3′-imidazo[1,5-a]pyridine]-1′,5′-dione]",67.8
4,"Cc1cc(Nc2ncnc3ccc(F)cc23)c(=O)n2c1C(=O)N[C@]21CC[C@@](O)(C(F)(F)C(F)(F)F)CC1 [Example 192, (cis)-6′-[(6-fluoroquinazolin-4-yl)amino]-4-hydroxy-8′-methyl-4-(pentafluoroethyl)-2′H-spiro[cyclohexane-1,3′-imidazo[1,5-a]pyridine]-1′,5′-dione]",281
5,"Cc1cc(Nc2ncnc3sccc23)c(=O)n2c1C(=O)N[C@]21CC[C@@](O)(C(F)(F)C(F)(F)F)CC1 [Example 193, (cis)-4-hydroxy-8′-methyl-4-(pentafluoroethyl)-6′-[(thieno[2,3-d]pyrimidin-4-yl)amino]-2′H-spiro[cyclohexane-1,3′-imidazo[1,5-a]pyridine]-1′,5′-dione]",29.8
6,"Cc1cc(Nc2ncnc3[nH]ccc23)c(=O)n2c1C(=O)N[C@]21CC[C@@](O)(C(F)(F)C(F)(F)F)CC1 [Example 194, (cis)-4-hydroxy-8′-methyl-4-(pentafluoroethyl)-6′-[(7H-pyrrolo[2,3-d]pyrimidin-4-yl)amino]-2′H-spiro[cyclohexane-1,3′-imidazo[1,5-a]pyridine]-1′,5′-dione]",12.2
7,"Cc1cc(Nc2ncnc3ccc(Cl)cc23)c(=O)n2c1C(=O)N[C@]21CC[C@@](O)(C(F)(F)C(F)(F)F)CC1 [Example 195, (cis)-6′-[(6-chloroquinazolin-4-yl)amino]-4-hydroxy-8′-methyl-4-(pentafluoroethyl)-2′H-spiro[cyclohexane-1,3′-imidazo[1,5-a]pyridine]-1′,5′-dione]",342
8,"Cc1cc(Nc2ncnc3[nH]ccc23)c(=O)n2c1C(=O)NC21CCSCC1 [Example 196, 8-methyl-6-(7H-pyrrolo[2,3-d]pyrimidin-4-ylamino)-2′,3′,5′,6′-tetrahydro-2H-spiro[imidazo[1,5-a]pyridine-3,4′-thiopyran]-1,5-dione]",0.5
9,"Cc1cc(Nc2ncnc3ccc(Cl)cc23)c(=O)n2c1C(=O)NC21CCSCC1 [Example 197, 6-[(6-chloroquinazolin-4-yl)amino]-8-methyl-2′,3′,5′,6′-tetrahydro-2H-spiro[imidazo[1,5-a]pyridine-3,4′-thiopyran]-1,5-dione]",14.9
10,"Cc1cc(Nc2ncnc3[nH]ccc23)c(=O)n2c1C(=O)NC21CCS(=O)(=O)CC1 [Example 198, 8-methyl-6-(7H-pyrrolo[2,3-d]pyrimidin-4-ylamino)-2′,3′,5′,6′-tetrahydro-2H-spiro[imidazo[1,5-a]pyridine-3,4′-thiopyran]-1,5-dione 1′,1′-dioxide]",1.1
11,"Cc1cc(Nc2ncnc3ccc(Cl)cc23)c(=O)n2c1C(=O)NC21CCS(=O)(=O)CC1 [Example 199, 6-[(6-chloroquinazolin-4-yl)amino]-8-methyl-2′,3′,5′,6′-tetrahydro-2H-spiro[imidazo[1,5-a]pyridine-3,4′-thiopyran]-1,5-dione 1′,1′-dioxide]",56.3
